# Literature values as cited in patent US20110293714A1, “PHARMACEUTICAL COMPOSITIONS SUITABLE FOR ORAL ADMINISTRATION OF DERIVATIZED INSULIN PEPTIDES” (priority 2008, published 2011).
# Conditions: 293.2 Kelvin; static electric fields or relatively low frequencies
row,SMILES,"Dielectric constant, ∈*"
1,CCO [Ethanol],25.3
2,"CC(O)CCO (stereo not shown) [1,3-butanediol]",28.8
3,CC(C)O [Isopropanol],20.18
4,"OCCCO [1,3-propanediol]",35.1
5,O [Water],80.1
6,CO [Methanol],33.0

# Same assay, conditions: 303.2 Kelvin; static electric fields or relatively low frequencies
row,SMILES,"Dielectric constant, ∈*"
1,"CC(O)CO (stereo not shown) [1,2-propanediol [propylene glycol], 1,2-propanediol]",27.5
